Measured values from paper PMC4712254 (Clinical Pharmacokinetics, 2015).
Marks after values point to notes of the source that are not given here.

Key:
[1] = Plasma pharmacokinetics of probe drugs and metabolites in healthy male subjects
[2] = both CYP2B6 probe drugs; cited from earlier work
CYP2B6 [3] = test: Basel cocktail phenotyping of CYP2B6; assay type: in vivo, human; details: plasma, geometric mean (90 % CI)
CYP2C9 = test: Basel cocktail phenotyping of CYP2C9; assay type: in vivo, human; details: for [los]/[E3174]: plasma, geometric mean (90 % CI); for metabolic ratios at 6 h: the other subjects
p-glycoprotein (pgp) = details: cited from earlier work
CYP2D6 = test: Basel cocktail phenotyping of CYP2D6; assay type: in vivo, human; details: plasma, geometric mean (90 % CI)
CYP3A4 = test: Basel cocktail phenotyping of CYP3A4; assay type: in vivo, human; details: plasma, geometric mean (90 % CI)
CYP2C19 [4] = test: Basel cocktail phenotyping of CYP2C19; assay type: in vivo, human; details: plasma, geometric mean (90 % CI)
CYP2B6 [5] = details: cited from earlier work
CYP2B6 [6] = details: cited from earlier work; remark: listed apart in the source
CYP2C19 [7] = details: cited from earlier work
CYP1A2 = details: cited from earlier work
[8] = 4 h, Cocktail + inducer (rifampicin)
[9] = 6 h, Cocktail + inducer (rifampicin)
[10] = 8 h, Cocktail + inducer (rifampicin)
[11] = 2 h, Cocktail + inducer (rifampicin)

Question: Which “plasma concentrations after deglucuronidation” value ([1]; after deglucuronidation) does the source give for O=C1Nc2c(O)cc(Cl)cc2[C@@](C#CC2(O)CC2)(C(F)(F)F)O1 [8,14-dihydroxy-efavirenz] here?
Answer: lower than 6 ng/mL

Question: And the plasma concentrations ([1]; without deglucuronidation)?
Answer: below the limit of quantification

Question: With CC(NC(C)(C)C)C(=O)c1cccc(Cl)c1 (stereo not shown) [bupropion] as the molecule, how does the half-life [2] read?
Answer: 50 to 70 h

Question: Which “[efa]/[OH-efa]” value (CYP2B6 [3]; [8]) does the source give for O=C1Nc2ccc(Cl)cc2[C@@](C#CC2CC2)(C(F)(F)F)O1 [efavirenz] here?
Answer: 19.3 (17.9–21.3)***^a

Question: What about the “[efa]/[OH-efa]” value (CYP2B6 [3]; 4 h, Cocktail + inhibitors) of the same molecule?
Answer: 84.1 (71.9–115.0)***

Question: And the “[efa]/[OH-efa]” value (CYP2B6 [3]; 4 h, Cocktail alone (baseline))?
Answer: 38.7 (34.8–48.5)

Question: What about the “[efa]/[OH-efa]” value (CYP2B6 [3]; [9]) of the same molecule?
Answer: 23.1 (21.3–25.7)***^a

Question: What about the “[efa]/[OH-efa]” value (CYP2B6 [3]; 6 h, Cocktail + inhibitors) of the same molecule?
Answer: 77.6 (69.3–94.2)***^a

Question: And the “[efa]/[OH-efa]” value (CYP2B6 [3]; 6 h, Cocktail alone (baseline))?
Answer: 43.7 (39.5–51.3)

Question: What about the “[efa]/[OH-efa]” value (CYP2B6 [3]; [10]) of the same molecule?
Answer: 27.7 (26.0–30.8)***^a

Question: And the “[efa]/[OH-efa]” value (CYP2B6 [3]; 8 h, Cocktail + inhibitors)?
Answer: 88.7 (79.7–108.0)***

Question: And the “[efa]/[OH-efa]” value (CYP2B6 [3]; 8 h, Cocktail alone (baseline))?
Answer: 53.2 (47.8–62.6)

Question: For CCCCc1nc(Cl)c(CO)n1Cc1ccc(-c2ccccc2-c2nn[nH]n2)cc1 [losartan], which “[los]/[E3174]” value (CYP2C9; [11]) is on record?
Answer: 0.44 (0.37–0.96)**^b

Question: What about the “[los]/[E3174]” value (CYP2C9; 2 h, Cocktail + inhibitors) of the same molecule?
Answer: 3.39 (2.66–4.62)ns^f

Question: What about the “[los]/[E3174]” value (CYP2C9; 2 h, Cocktail alone (baseline)) of the same molecule?
Answer: 1.18 (1.17–2.99)

Question: What about the “[los]/[E3174]” value (CYP2C9; [8]) of the same molecule?
Answer: 0.08 (0.06–0.16)**^a

Question: What about the “[los]/[E3174]” value (CYP2C9; 4 h, Cocktail + inhibitors) of the same molecule?
Answer: 1.17 (1.03–2.09)***

Question: What about the “[los]/[E3174]” value (CYP2C9; 4 h, Cocktail alone (baseline)) of the same molecule?
Answer: 0.17 (0.14–0.37)

Question: And the “[los]/[E3174]” value (CYP2C9; [9])?
Answer: 0.06 (0.04–0.12)***^c

Question: What about the “[los]/[E3174]” value (CYP2C9; 6 h, Cocktail + inhibitors) of the same molecule?
Answer: 0.55 (0.47–1.01)***^a

Question: What about the “[los]/[E3174]” value (CYP2C9; 6 h, Cocktail alone (baseline)) of the same molecule?
Answer: 0.10 (0.08–0.19)

Question: What about the “[los]/[E3174]” value (CYP2C9; [10]) of the same molecule?
Answer: 0.05 (0.04–0.07) ns^b

Question: And the “[los]/[E3174]” value (CYP2C9; 8 h, Cocktail + inhibitors)?
Answer: 0.24 (0.20–0.42)***

Question: And the “[los]/[E3174]” value (CYP2C9; 8 h, Cocktail alone (baseline))?
Answer: 0.05 (0.04–0.08)

Question: What about the “metabolic ratios at 6 h” value (CYP2C9; baseline) of the same molecule?
Answer: 0.04–0.11

Question: What about the “metabolic ratios at 6 h” value (CYP2C9; inhibition) of the same molecule?
Answer: 0.20–0.53

Question: What about the “p-glycoprotein (pgp) substrate” value (p-glycoprotein (pgp)) of the same molecule?
Answer: transported by p-glycoprotein

Question: What does the source list for COCCc1ccc(OCC(O)CNC(C)C)cc1 (stereo not shown) [metoprolol]?
Answer: [met]/[OH-met] (CYP2D6; [11]): 1.83 (1.60–2.18) nt^d; [met]/[OH-met] (CYP2D6; 2 h, Cocktail alone (baseline)): 1.93 (1.56–2.47)^e; [met]/[OH-met] (CYP2D6; [8]): 2.02 (1.84–2.31) ns^a; [met]/[OH-met] (CYP2D6; 4 h, Cocktail + inhibitors): 6.60 (5.90–7.85)***; [met]/[OH-met] (CYP2D6; 4 h, Cocktail alone (baseline)): 2.20 (2.00–2.54); [met]/[OH-met] (CYP2D6; [9]): 1.88 (1.69–2.20)*^a; [met]/[OH-met] (CYP2D6; 6 h, Cocktail + inhibitors): 8.99 (8.33–10.01)***; [met]/[OH-met] (CYP2D6; 6 h, Cocktail alone (baseline)): 2.36 (2.16–2.69)^a; [met]/[OH-met] (CYP2D6; [10]): 1.67 (1.51–1.93) ns^b; [met]/[OH-met] (CYP2D6; 8 h, Cocktail + inhibitors): 9.90(9.06–11.39)***; [met]/[OH-met] (CYP2D6; 8 h, Cocktail alone (baseline)): 2.11 (1.91–2.44)

Question: With Cc1ncc2n1-c1ccc(Cl)cc1C(c1ccccc1F)=NC2 [midazolam] as the molecule, how does the “[mid]/[OH-mid]” value (CYP3A4; [11]) read?
Answer: 1.73 (1.54–2.11) ns^a

Question: And the “[mid]/[OH-mid]” value (CYP3A4; 2 h, Cocktail + inhibitors)?
Answer: 3.46 (3.10–4.29)***

Question: What about the “[mid]/[OH-mid]” value (CYP3A4; 2 h, Cocktail alone (baseline)) of the same molecule?
Answer: 1.31 (1.16–1.77)

Question: What about the “[mid]/[OH-mid]” value (CYP3A4; 4 h, Cocktail alone (baseline)) of the same molecule?
Answer: 1.51 (1.33–1.97)

Question: For COc1ccc2[nH]c([S+]([O-])Cc3ncc(C)c(OC)c3C)nc2c1 (stereo not shown) [omeprazole], which “[ome]/[OH-ome]” value (CYP2C19 [4]; [11]) is on record?
Answer: 0.25 (0.22–0.35)**^a

Question: And the “[ome]/[OH-ome]” value (CYP2C19 [4]; 2 h, Cocktail + inhibitors)?
Answer: 25.8 (22.7–33.2)***

Question: And the “[ome]/[OH-ome]” value (CYP2C19 [4]; 2 h, Cocktail alone (baseline))?
Answer: 1.08 (0.90–1.46)

Question: And the “[ome]/[OH-ome]” value (CYP2C19 [4]; [8])?
Answer: 0.18 (0.15–0.24)***^a

Question: And the “[ome]/[OH-ome]” value (CYP2C19 [4]; 4 h, Cocktail + inhibitors)?
Answer: 18.1 (16.0–22.5)***

Question: What about the “[ome]/[OH-ome]” value (CYP2C19 [4]; 4 h, Cocktail alone (baseline)) of the same molecule?
Answer: 0.49 (0.38–0.86)

Question: And the “[ome]/[OH-ome]” value (CYP2C19 [4]; 6 h, Cocktail + inhibitors)?
Answer: 14.6 (12.5–18.8)nt^a

Question: And the “[ome]/[OH-ome]” value (CYP2C19 [4]; 6 h, Cocktail alone (baseline))?
Answer: 0.28 (0.18–0.55)^b

Question: Which “CYP2B6 inhibition in vitro” value (CYP2B6 [5]) does the source give for Fc1ccc([C@@H]2CCNC[C@H]2COc2ccc3c(c2)OCO3)cc1 [paroxetine] here?
Answer: CYP2B6 inhibitor in vitro

Question: With CO[C@H]1/C=C/O[C@@]2(C)Oc3c(C)c(O)c4c(O)c(c(/C=N/N5CCN(C)CC5)c(O)c4c3C2=O)NC(=O)/C(C)=C\C=C\[C@H](C)[C@H](O)[C@@H](C)[C@@H](O)[C@@H](C)[C@H](OC(C)=O)[C@@H]1C [rifampicin] as the molecule, how does the “in vivo inducer class, CYP2B6” value (CYP2B6 [6]) read?
Answer: moderate inducer (50–80 % decrease in AUC)

Question: What about the “concentrations in one subject compared with the other subjects” value ([1]; subject excluded from induction data, higher) of the same molecule?
Answer: approximately 100 fold

Question: What about the “in vivo inducer class, 2C19” value (CYP2C19 [7]) of the same molecule?
Answer: moderate inducer (50–80 % decrease in AUC)

Question: And the “in vivo inducer class, CYP1A2” value (CYP1A2)?
Answer: weak inducer
